From PubChem BioAssay (NCI)
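These data come from cells grown in 96-well plates and exposed to compound for 48 hours at five concentrations. GI50: concentration for 50% inhibition of growth. TGI: total growth inhibition.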

What was measured:
Test in all cases: DTP human tumour cell line panel, 48 h
HOP-62 NSCLC = tested on: HOP-62 NSCLC
OVCAR-4 ovarian = tested on: OVCAR-4 ovarian
T-47D breast = tested on: T-47D breast
BT-549 breast = tested on: BT-549 breast
HCC-2998 colon = tested on: HCC-2998 colon
M14 melanoma = tested on: M14 melanoma
PC-3 prostate = tested on: PC-3 prostate
SN12C renal = tested on: SN12C renal
SK-MEL-2 melanoma = tested on: SK-MEL-2 melanoma
HCT-116 colon = tested on: HCT-116 colon
SNB-75 CNS = tested on: SNB-75 CNS
HT29 colon = tested on: HT29 colon
NCI-H522 lung = tested on: NCI-H522 lung
OVCAR-5 ovarian = tested on: OVCAR-5 ovarian
SK-MEL-28 melanoma = tested on: SK-MEL-28 melanoma
CAKI-1 renal = tested on: CAKI-1 renal
A498 renal = tested on: A498 renal
SF-539 CNS = tested on: SF-539 CNS
NCI-H226 lung = tested on: NCI-H226 lung
HCT-15 colon = tested on: HCT-15 colon
EKVX NSCLC = tested on: EKVX NSCLC
U251 CNS = tested on: U251 CNS
LOX IMVI melanoma = tested on: LOX IMVI melanoma
SK-MEL-5 melanoma = tested on: SK-MEL-5 melanoma
SNB-19 CNS = tested on: SNB-19 CNS
TK-10 renal = tested on: TK-10 renal
DU-145 prostate = tested on: DU-145 prostate
UACC-62 melanoma = tested on: UACC-62 melanoma

Cc1cc(C)c(CNC(=O)c2cc(Cl)c3c(c2C)O[C@@](C)(C2CCC(N(C)C)CC2)O3)c(=O)[nH]1 (stereo partly specified)
GI50 (HOP-62 NSCLC): > 100 µM | TGI (HOP-62 NSCLC): > 100 µM | GI50 (OVCAR-4 ovarian): 83.9 µM | TGI (OVCAR-4 ovarian): > 100 µM | GI50 (T-47D breast): > 100 µM | TGI (T-47D breast): > 100 µM | GI50 (BT-549 breast): 42 µM | TGI (BT-549 breast): > 100 µM | GI50 (HCC-2998 colon): > 100 µM | TGI (HCC-2998 colon): > 100 µM | GI50 (M14 melanoma): 33.8 µM | TGI (M14 melanoma): > 100 µM | GI50 (PC-3 prostate): 69.7 µM | TGI (PC-3 prostate): > 100 µM | GI50 (SN12C renal): > 100 µM | TGI (SN12C renal): > 100 µM | GI50 (SK-MEL-2 melanoma): > 100 µM | TGI (SK-MEL-2 melanoma): > 100 µM | GI50 (HCT-116 colon): 40.3 µM | TGI (HCT-116 colon): > 100 µM | GI50 (SNB-75 CNS): 15.2 µM | TGI (SNB-75 CNS): > 100 µM | GI50 (HT29 colon): 33.8 µM | TGI (HT29 colon): > 100 µM | GI50 (NCI-H522 lung): > 100 µM | TGI (NCI-H522 lung): > 100 µM | GI50 (OVCAR-5 ovarian): > 100 µM | TGI (OVCAR-5 ovarian): > 100 µM | GI50 (SK-MEL-28 melanoma): > 100 µM | TGI (SK-MEL-28 melanoma): > 100 µM | GI50 (CAKI-1 renal): 93.1 µM | TGI (CAKI-1 renal): > 100 µM | GI50 (A498 renal): 27.8 µM | TGI (A498 renal): > 100 µM | GI50 (SF-539 CNS): 57.9 µM | TGI (SF-539 CNS): > 100 µM | GI50 (NCI-H226 lung): 93 µM | TGI (NCI-H226 lung): > 100 µM | GI50 (HCT-15 colon): > 100 µM | TGI (HCT-15 colon): > 100 µM | GI50 (EKVX NSCLC): > 100 µM | TGI (EKVX NSCLC): > 100 µM | GI50 (U251 CNS): 68 µM | TGI (U251 CNS): > 100 µM | GI50 (LOX IMVI melanoma): 47.8 µM | TGI (LOX IMVI melanoma): > 100 µM | GI50 (SK-MEL-5 melanoma): 21.3 µM | TGI (SK-MEL-5 melanoma): 63.2 µM | GI50 (SNB-19 CNS): > 100 µM | TGI (SNB-19 CNS): > 100 µM | GI50 (TK-10 renal): > 100 µM | TGI (TK-10 renal): > 100 µM | GI50 (DU-145 prostate): > 100 µM | TGI (DU-145 prostate): > 100 µM | GI50 (UACC-62 melanoma): > 100 µM | TGI (UACC-62 melanoma): > 100 µM
